{"source": "patent US9835614B2", "about": "“Measurement of cell growth and drug susceptibility by resonant mass measurement” (Affinity Biosensors, LLC, priority 2013, dated 2017)", "tested_on": "E. coli", "assay": "Resonant mass measurement of growth of E. coli cultures with antibiotics", "type": "cell-based", "data": [{"compound": "CC1(C)S[C@@H]2[C@H](NC(=O)[C@H](N)c3ccccc3)C(=O)N2[C@H]1C(=O)O", "note": "[ampicillin]", "values": [{"measurement": "time development of mass and number of microbes in culture (FIG. 4)", "setting": "E. coli in nutrient broth containing 64 μg/ml, cultures measured cyclically via selection valve", "value": "grow robustly"}, {"measurement": "microbe number concentration growth curve (number of microbes per ml, FIG. 5(a))", "setting": "E. coli, 64 μg/ml, concentration calculated in each time interval", "value": "begins at about one hour"}, {"measurement": "diagnostic susceptibility of the E. coli strain", "setting": "at the measured concentration (64 μg/ml)", "value": "resistant"}]}]}
